Patent publication US20260285850A1, “SUBSTITUTED OXAZOLIDINONES AND IMIDAZOLINONES AS HERBICIDES” (FMC CORPORATION, priority 2023, published 2026)

Key:
Format in all cases: in vivo
corn (Zea mays) [1] = test: Test A postemergence application, visual injury rating 0-100; conditions: 10 days
Method in brief: (§1)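 Scale 0–100 (no effect to complete control), visual, versus untreated controls, read 10 days after application. Application: preemergence directed spray onto seeded loam–sand soil, or postemergence to young plants; formulation in non-phytotoxic solvent with surfactant.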

[2] = tested on: barnyardgrass (Echinochloa crus-galli); test: as above; conditions: 10 days
Method in brief: as §1

[3] = tested on: palmer (palmer amaranth, palmer pigweed, Amaranthus palmeri); test: as above; conditions: 10 days
Method in brief: as §1

[4] = tested on: green foxtail (Setaria viridis); test: as above; conditions: 10 days
Method in brief: as §1

soybean (Glycine max) [5] = test: as above; conditions: 10 days
Method in brief: as §1

kochia (Bassia scoparia) [6] = test: as above; conditions: 10 days
Method in brief: as §1

[7] = tested on: oat, wild (wild oat, Avena fatua); test: as above; conditions: 10 days
Method in brief: as §1

[8] = tested on: ragweed (common ragweed, Ambrosia artemisiifolia); test: as above; conditions: 10 days
Method in brief: as §1

[9] = tested on: galium (catchweed bedstraw, Galium aparine); test: as above; conditions: 10 days
Method in brief: as §1

[10] = tested on: ryegrass, Italian (italian ryegrass, Lolium multiflorum); test: as above; conditions: 10 days
Method in brief: as §1

[11] = tested on: blackgrass (Alopecurus myosuroides); test: as above; conditions: 10 days
Method in brief: as §1

[12] = tested on: wheat (Triticum aestivum); test: as above; conditions: 10 days
Method in brief: as §1

[13] = tested on: horseweed (Erigeron canadensis); test: as above; conditions: 10 days
Method in brief: as §1

corn (Zea mays) [14] = test: Test A preemergence soil spray, visual injury rating 0-100; conditions: 10 days, 0 = no effect, 100 = complete control
Method in brief: as §1

[15] = tested on: barnyardgrass (Echinochloa crus-galli); test: as above; conditions: 10 days, 0 = no effect, 100 = complete control
Method in brief: as §1

[16] = tested on: palmer (palmer amaranth, palmer pigweed, Amaranthus palmeri); test: as above; conditions: 10 days, 0 = no effect, 100 = complete control
Method in brief: as §1

[17] = tested on: green foxtail (Setaria viridis); test: as above; conditions: 10 days, 0 = no effect, 100 = complete control
Method in brief: as §1

soybean (Glycine max) [18] = test: as above; conditions: 10 days, 0 = no effect, 100 = complete control
Method in brief: as §1

kochia (Bassia scoparia) [19] = test: as above; conditions: 10 days, 0 = no effect, 100 = complete control
Method in brief: as §1

[20] = tested on: oat, wild (wild oat, Avena fatua); test: as above; conditions: 10 days, 0 = no effect, 100 = complete control
Method in brief: as §1

[21] = tested on: ragweed (common ragweed, Ambrosia artemisiifolia); test: as above; conditions: 10 days, 0 = no effect, 100 = complete control
Method in brief: as §1

[22] = tested on: ryegrass, Italian (italian ryegrass, Lolium multiflorum); test: as above; conditions: 10 days, 0 = no effect, 100 = complete control
Method in brief: as §1

[23] = tested on: blackgrass (Alopecurus myosuroides); test: as above; conditions: 10 days, 0 = no effect, 100 = complete control
Method in brief: as §1

[24] = tested on: wheat (Triticum aestivum); test: as above; conditions: 10 days, 0 = no effect, 100 = complete control
Method in brief: as §1

[25] = tested on: barnyardgrass (Echinochloa crusgalli); test: Test B flooded paddy test, visual plant response rating 0-100; conditions: 250 g ai/ha, Flood, applied to paddy water, evaluated after 13 days
Method in brief: (§2)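 Plants were grown to the 2-leaf stage, then pots were flooded to 3 cm above the soil and compound was applied directly to the paddy water, with that depth kept throughout.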

rice (Oryza sativa) = test: as above; conditions: 250 g ai/ha, Flood, applied to paddy water, evaluated after 13 days
Method in brief: as §2

[26] = tested on: sedge, umbrella (small-flower umbrella sedge, Cyperus difformis); test: as above; conditions: 250 g ai/ha, Flood, applied to paddy water, evaluated after 13 days
Method in brief: as §2

[27] = tested on: ducksalad (Heteranthera limosa); test: as above; conditions: 250 g ai/ha, Flood, applied to paddy water, evaluated after 13 days
Method in brief: as §2

[28] = 31 g ai/ha, postemergence, 0 = no effect, 100 = complete control
[29] = Postemergence, 125 g ai/ha, 0 is no effect, 100 is complete control

## CC1(C(=O)NC2CC=C(C(=O)OCC(F)(F)F)C2)CN(c2cc(F)cc(F)c2)C(=O)O1 (stereo not shown) [Compound 1]
Corn (Zea mays) [1]; [28]
  Corn plant response rating (0-100): 100
Corn (Zea mays) [1]; [29]
  Corn plant response rating (0 to 100 scale): 100
[2]; [28]
  Barnyardgrass plant response rating (0-100): 100
[2]; [29]
  Barnyardgrass plant response rating (0 to 100 scale): 100
[3]; [28]
  Amaranth, Palmer plant response rating (0-100): 90
[3]; [29]
  Amaranth, Palmer / Pigweed, Palmer plant response rating (0 to 100 scale): 90
[4]; [28]
  Foxtail, Green plant response rating (0-100): 90
[4]; [29]
  Foxtail, Green plant response rating (0 to 100 scale): 90
Soybean (Glycine max) [5]; [28]
  Soybean plant response rating (0-100): 80
Soybean (Glycine max) [5]; [29]
  Soybean plant response rating (0 to 100 scale): 90
Kochia (Bassia scoparia) [6]; [28]
  Kochia plant response rating (0-100): 70
Kochia (Bassia scoparia) [6]; [29]
  Kochia plant response rating (0 to 100 scale): 90
[7]; [28]
  Oat, Wild plant response rating (0-100): 90
[7]; [29]
  Oat, Wild plant response rating (0 to 100 scale): 100
[8]; [28]
  Ragweed plant response rating (0-100): 60
[8]; [29]
  Ragweed plant response rating (0 to 100 scale): 70
[9]; [28]
  Galium plant response rating (0-100): 90
[9]; [29]
  Galium plant response rating (0 to 100 scale): 90
[10]; [28]
  Ryegrass, Italian plant response rating (0-100): 80
[10]; [29]
  Ryegrass, Italian plant response rating (0 to 100 scale): 80
[11]; [28]
  Blackgrass plant response rating (0-100): 90
[11]; [29]
  Blackgrass plant response rating (0 to 100 scale): 100
[12]; [28]
  Wheat plant response rating (0-100): 90
[12]; [29]
  Wheat plant response rating (0 to 100 scale): 90
[13]; [28]
  Horseweed plant response rating (0-100): 70
[13]; [29]
  Horseweed plant response rating (0 to 100 scale): 80
Corn (Zea mays) [14]; 31 g ai/ha
  Corn plant response rating (0-100): 60
Corn (Zea mays) [14]; 125 g ai/ha
  Corn plant response rating (0 to 100 scale): 90
[15]; 31 g ai/ha
  Barnyardgrass plant response rating (0-100): 90
[15]; 125 g ai/ha
  Barnyardgrass plant response rating (0 to 100 scale): 100
[16]; 31 g ai/ha
  Amaranth, Palmer plant response rating (0-100): 90
[16]; 125 g ai/ha
  Amaranth, Palmer plant response rating (0 to 100 scale): 100
[17]; 31 g ai/ha
  Foxtail, Green plant response rating (0-100): 100
[17]; 125 g ai/ha
  Foxtail, Green plant response rating (0 to 100 scale): 100
Soybean (Glycine max) [18]; 31 g ai/ha
  Soybean plant response rating (0-100): 70
Soybean (Glycine max) [18]; 125 g ai/ha
  Soybean plant response rating (0 to 100 scale): 90
Kochia (Bassia scoparia) [19]; 31 g ai/ha
  Kochia plant response rating (0-100): 50
Kochia (Bassia scoparia) [19]; 125 g ai/ha
  Kochia plant response rating (0 to 100 scale): 100
[20]; 31 g ai/ha
  Oat, Wild plant response rating (0-100): 60
[20]; 125 g ai/ha
  Oat, Wild plant response rating (0 to 100 scale): 80
[21]; 31 g ai/ha
  Ragweed plant response rating (0-100): 20
[21]; 125 g ai/ha
  Ragweed plant response rating (0 to 100 scale): 90
[22]; 31 g ai/ha
  Ryegrass, Italian plant response rating (0-100): 80
[22]; 125 g ai/ha
  Ryegrass, Italian plant response rating (0 to 100 scale): 90
[23]; 31 g ai/ha
  Blackgrass plant response rating (0-100): 60
[23]; 125 g ai/ha
  Blackgrass plant response rating (0 to 100 scale): 70
[24]; 31 g ai/ha
  Wheat plant response rating (0-100): 90
[24]; 125 g ai/ha
  Wheat plant response rating (0 to 100 scale): 100
[25]
  Plant response rating, Barnyardgrass (0 to 100 scale, 0 is no effect and 100 is complete control): 95
Rice (Oryza sativa)
  Plant response rating, Rice (0 to 100 scale, 0 is no effect and 100 is complete control): 80
[26]
  Plant response rating, Sedge, Umbrella (0 to 100 scale, 0 is no effect and 100 is complete control): 95
[27]
  Plant response rating, Ducksalad (0 to 100 scale, 0 is no effect and 100 is complete control): 60
